From patent US20220306585A1, “PYRAZOLE DERIVATIVES FOR CONTROLLING ARTHROPODS” (Bayer Animal Health GmbH, priority 2019, published 2022) come the findings set out here.

Molecules are shown by their SMILES.

Data set [1] is described as follows: Measurement of stability of prodrugs in buffer at pH 7.4. The format is physicochemical. The settings on record: PBS buffer pH 7.4, 37° C., HPLC peak area, read-out: % Recovery after 24 h (stability at pH 7.4). The method, boiled down: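 Test compound (0.15 mg) in DMSO/acetonitrile was mixed with PBS pH 7.4 and held at 37 °C for 24 h. Remaining compound was followed by HPLC as peak area percentage of total area. The final time point was also analysed by HPLC-MS.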

Data set [2] is described as follows: Degradation of prodrugs and release of parent drug in dog plasma. The format is in vitro ADME. Particulars: male, Beagle, dog plasma (EDTA stabilized), 37° C., percent area of prodrug at t0. The procedure: Measurement of Release of Parent Drug in Dog Plasma 1 mg of the test compound was dissolved in 0.5 mL acetonitrile/dimethylsulfoxide 9:1. For complete dissolution the HPLC vial was shaken and treated with ultrasound. 20 μL of this solution were added to 1 mL of dog plasma (Beagle, male; EDTA stabilized) under vortexing at a temperature of 37° C. Aliquots (100 μL each) were taken at 0.17, 0.5, 1, 1.5, 2 and 4 hours. Each aliquot was transferred to a vial containing 300 μL of acetonitrile/citric acid buffer pH 3 80:20. These solutions were centrifuged at 5000 rpm for 10 minutes. The supernatant was analysed by HPLC (Method 8) to determine the amount of the test compound. In addition, the reaction mixture was analysed by method 9 (HPLC-MS) at the final timepoint. Both decrease of the prodrug concentration and increase of parent drug concentration were monitored. All data is given as percent area of the prodrug at t0.

As to `N#CC1(N(COC(=O)/C=C/C(=O)O)C(=O)c2cc(-c3cnn(-c4c(Cl)cc(C(F)(C(F)(F)F)C(F)(F)F)cc4OC(F)(F)F)c3)ccc2Cl)CC1` [Example 13, (2E)-4-{[(2-Chloro-5-{1-[2-chloro-4-(1,1,1,2,3,3,3-heptafluoropropan-2-yl)-6-(trifluoromethoxy)phenyl]-1H-pyrazol-4-yl}benzoyl)(1-cyanocyclopropyl)amino]methoxy}-4-oxobut-2-enoic acid], the recovery at 24 h, 0.1 mg/mL in data set [1] came to 97%. The recovery at 0.17 h, 39 µg/mL in data set [2] (0.17 h) is 95%. The recovery at 0.5 h, 39 µg/mL in data set [2] (0.5 h) was found to be 79%. Also, in data set [2] (1 h), the recovery at 1 h, 39 µg/mL stood at 51%. Besides, the recovery at 1.5 h, 39 µg/mL in data set [2] (1.5 h) was determined as 33%. Also, the recovery at 2 h, 39 µg/mL in data set [2] (2 h) worked out at 18%. Further, in data set [2] (4 h), the recovery at 4 h, 39 µg/mL was determined as 0%.
